Reference: ChEMBL document CHEMBL6096723, “Discovery of novel capsaicin analogs as TRPV1 inhibitors for the treatment of idiopathic pulmonary fibrosis” (Eur J Med Chem, 2025)
Activity calls are given as the source filed them. The rule behind the calls is not given here.

How the values were obtained:
[1] = Cytotoxicity against mouse NIH3T3 cells assessed as survival rate at 10 uM measured after 24 hrs by CCK-8 assay relative to control; type: toxicity, cell-based; conditions: read-out: Survival
NIH3T3 [2] = experiment: Antifibrotic activity in mouse NIH3T3 cells assessed as decrease in TRPV1 expression measured after 48 hrs incubation by Western blotting analysis; type: functional, cell-based; conditions: dose 1-10 µM
[3] = target: Transient receptor potential cation channel subfamily V member 1 (Homo sapiens) (UniProt Q8NER1); experiment: Inhibition of TRPV1 (unknown origin) overexpressed in HEK-293T cells assessed as decrease in TGFbeta-induced alpha-SMA expression at 10 uM measured after 48 hrs incubation by Western blotting analysis; type: cell-based
Chain of Transient receptor potential cation channel subfamily V member 1 (Homo sapiens) (Q8NER1 whole entry): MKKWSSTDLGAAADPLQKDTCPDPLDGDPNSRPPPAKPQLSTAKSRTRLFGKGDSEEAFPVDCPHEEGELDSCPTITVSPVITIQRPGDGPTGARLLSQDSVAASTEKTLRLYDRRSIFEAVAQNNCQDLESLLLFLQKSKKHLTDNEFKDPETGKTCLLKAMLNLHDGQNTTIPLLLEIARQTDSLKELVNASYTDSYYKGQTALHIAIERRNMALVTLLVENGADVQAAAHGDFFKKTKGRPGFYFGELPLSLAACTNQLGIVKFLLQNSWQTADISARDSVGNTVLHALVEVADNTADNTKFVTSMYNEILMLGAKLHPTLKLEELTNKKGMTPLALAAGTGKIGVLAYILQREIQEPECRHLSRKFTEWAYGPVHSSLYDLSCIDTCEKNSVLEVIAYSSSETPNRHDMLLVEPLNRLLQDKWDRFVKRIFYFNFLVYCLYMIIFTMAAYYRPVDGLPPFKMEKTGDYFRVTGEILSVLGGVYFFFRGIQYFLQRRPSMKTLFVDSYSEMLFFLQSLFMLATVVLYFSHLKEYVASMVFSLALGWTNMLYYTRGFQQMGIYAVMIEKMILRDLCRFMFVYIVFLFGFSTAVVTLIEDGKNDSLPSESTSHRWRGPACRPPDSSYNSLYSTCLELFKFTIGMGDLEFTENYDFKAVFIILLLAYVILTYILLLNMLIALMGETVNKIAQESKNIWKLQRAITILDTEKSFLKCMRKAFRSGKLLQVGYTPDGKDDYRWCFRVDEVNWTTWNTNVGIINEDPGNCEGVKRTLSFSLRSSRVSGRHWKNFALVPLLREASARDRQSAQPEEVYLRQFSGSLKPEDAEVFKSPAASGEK

NIH3T3 [4] = experiment: Inhibition of TGFbeta-induced Smad3 phosphorylation in mouse NIH3T3 cells by Western blot analysis; type: functional, cell-based; conditions: dose 1-10 µM
NIH3T3 [5] = experiment: Inhibition of TGFbeta-induced JNK phosphorylation in mouse NIH3T3 cells at 1 to 10 uM by Western blot analysis; type: functional, cell-based; conditions: dose 1-10 µM
[6] = Acute toxicity in Kunming female mouse assessed as Albumin (ALB) level at 180 mg/kg, ip measured after 14 days (reference value: 35.8 g/L); type: organism-based; conditions: in vivo, 336 h, time 14 day
[7] = Acute toxicity in Kunming mouse assessed as organ lesions in heart at 180 mg/kg, ip measured after 14 days by H and E staining based assay; type: organism-based; conditions: in vivo, 336 h, time 14 day
[8] = VRT(0 to t) in Sprague-Dawley rat at 50 mg/kg, po measured upto 4 hrs by UPLC-MS/MS analysis; type: ADME, organism-based; conditions: in vivo
[9] = VRT(0 to infinity) in Sprague-Dawley rat at 50 mg/kg, po measured upto 4 hrs by UPLC-MS/MS analysis; type: ADME, organism-based; conditions: in vivo
[10] = Apparent volume of distribution in Sprague-Dawley rat at 50 mg/kg, po measured upto 4 hrs by UPLC-MS/MS analysis; type: ADME, organism-based; conditions: in vivo
Rattus norvegicus [11] = experiment: Zeta in Sprague-Dawley rat at 50 mg/kg, po measured upto 4 hrs by UPLC-MS/MS analysis; type: ADME, organism-based; conditions: in vivo
[12] = Cmax in Sprague-Dawley rat at 50 mg/kg, po measured upto 4 hrs by UPLC-MS/MS analysis; type: ADME, organism-based; conditions: in vivo
[13] = Oral bioavailability in Sprague-Dawley rat at 50 mg/kg measured upto 4 hrs by UPLC-MS/MS analysis; type: ADME, organism-based; conditions: in vivo
[14] = MRT(0 to t) in Sprague-Dawley rat at 50 mg/kg, ip measured upto 4 hrs by UPLC-MS/MS analysis; type: ADME, organism-based; conditions: in vivo
[15] = Apparent volume of distribution in Sprague-Dawley rat at 50 mg/kg, ip measured upto 4 hrs by UPLC-MS/MS analysis; type: ADME, organism-based; conditions: in vivo
[16] = Cmax in Sprague-Dawley rat at 50 mg/kg, ip measured upto 4 hrs by UPLC-MS/MS analysis; type: ADME, organism-based; conditions: in vivo
[17] = VRT(0 to t) in Sprague-Dawley rat at 50 mg/kg, iv measured upto 4 hrs by UPLC-MS/MS analysis; type: ADME, organism-based; conditions: in vivo
[18] = Clearance in Sprague-Dawley rat at 50 mg/kg, iv measured upto 4 hrs by UPLC-MS/MS analysis; type: ADME, organism-based; conditions: in vivo
Rattus norvegicus [19] = experiment: Cz in Sprague-Dawley rat at 50 mg/kg, iv measured upto 4 hrs by UPLC-MS/MS analysis; type: ADME, organism-based; conditions: in vivo
Mus musculus = experiment: Anti-pulmonary fibrotic activity against bleomycin induced pulmonary fibrosis mouse model assessed as reduction in alveolar structure at 10 to 20 mg/kg, ip administered every alternative day for 8 to 21 days after modeling; type: functional, organism-based; conditions: dose 10-20 mg/kg, time 8-21 day
[20] = Toxicity in bleomycin-induced pulmonary fibrosis mouse model assessed as body weight change at 10 to 20 mg/kg, ip administered every alternative day for 8 to 21 days after modeling; type: organism-based; conditions: in vivo, dose lower 10 mg/kg, time lower 8 day, dose upper 20 mg/kg, time upper 21 day
[21] = AUC(0 to t) in Sprague-Dawley rat at 50 mg/kg, po measured upto 4 hrs by UPLC-MS/MS analysis; type: ADME, organism-based; conditions: in vivo
[22] = AUC(0 to t) in Sprague-Dawley rat at 50 mg/kg, ip measured upto 4 hrs by UPLC-MS/MS analysis; type: ADME, organism-based; conditions: in vivo
[23] = AUMC(0 to t) in Sprague-Dawley rat at 50 mg/kg, ip measured upto 4 hrs by UPLC-MS/MS analysis; type: ADME, organism-based; conditions: in vivo
[24] = AUMC(0 to infinity) in Sprague-Dawley rat at 50 mg/kg, ip measured upto 4 hrs by UPLC-MS/MS analysis; type: ADME, organism-based; conditions: in vivo
[25] = AUMC(0 to t) in Sprague-Dawley rat at 50 mg/kg, iv measured upto 4 hrs by UPLC-MS/MS analysis; type: ADME, organism-based; conditions: in vivo

For `O=C(/C=C/c1ccc(O)c(O)c1)CCCCc1ccccc1`, the viability at 24 h, 10 µM [1] was 99.2%, the Activity (NIH3T3 [2]) was “Dose-dependent-effect; Compound More Potent Than Nintedanib” and the inhibition [3] was “Active”. For the same compound, the inhibition (NIH3T3 [4]) was “Dose-dependent-effect; Compound Showed Superior Inhibition Effect Than Nintedanib”, the inhibition (NIH3T3 [5]) was “Active” and the Activity [6] was 33.2 g/L. The Activity [7] was “Non-toxic”, the “VRT(t)” value [8] was 0.75 hr2 and the VRT [9] was 1.28 hr2. The Vz [10] was 237.78 L/kg, the Activity (Rattus norvegicus [11]) was 0.84 and the Cmax [12] was 48.9 ng/mL. The bioavailability [13] was 6.5%, the MRT last at 4 h [14] was 31.2 min and the Vz [15] was 9.28 L/kg. For the same compound, the Cmax [16] was 1490 ng/mL, the “VRT(t)” value [17] was 0.569 hr2 and the CL [18] was 125 mL/min/kg. The Cz (Rattus norvegicus [19]) was 31.67 µg/L, the Activity (Mus musculus) was “Active” and the Activity [20] was “Non-toxic”. For the same compound, the AUC(0-t) at 4 h [21] was 99 ng·h/mL, the AUC(0-t) at 4 h [22] was 1100 ng·h/mL and the AUMCt [23] was 568.11 ug/L.hr. The AUMC [24] was 628.01 ug/L.hr and the AUMCt [25] was 1969.254 ug/L.hr.
